Experimental data taken from patent publication US6528276B1, “Fusion proteins, DNA molecules, vectors, and host cells useful for measuring protease activity” (priority 1998, dated 2003).

What was measured:
[1] = system: fusion protein EdR5A/5B (i.e., the protein encoded by VgRXR-5A/5B); assay: Ligand-induced activation of the VgRXR-5A/5B fusion protein, luciferase reporter in COS cells without protease; assay type: cell-based
Experimental: (§1) COS African green monkey kidney cells were plated at approximately 150,000 cells/well in a 6-well plate. The next day, approximately 3.6 μg plasmid DNA was dissolved in 100 μl of Dulbecco's modified Eagle's media-Gibco BRL (DMEM), combined with 29 μl of Superfect reagent (Qiagen), and then mixed by pipetting. The mixture was incubated at room temperature for ten minutes.
(§2) The amounts of DNA typically used in each experiment was as follows: 0.6 μg of pIND-Luc, 0.6 μg of pVgRXR-5A/5B or pVgRXR-5A**5B, and 0-2.4 μg of pSRα-NS3-4A or pSRα-NS3-4A(S1165A) or pSRα.
(§3) Next 600 μl of DMEM with v/v 10% fetal bovine serum (10% FBS-DMEM) was added to the DNA mixture and mixed by pipetting. The cells in the 6-well plate were washed with 2.5 ml phosphate-buffered saline (PBS). The PBS was removed from the cells and replaced by the DNA mixture. The cells were incubated in the DNA mixture for three hours at 37° C. in a 5% CO2 incubator.
After incubation, the cells were washed with PBS. The PBS was removed and 10% FBS-DMEM was added to the cells. The cells were incubated in 10% FBS-DMEM overnight at 37° C. in a 5% CO2 incubator.
On the next day, an exogenous ligand was added to the cells to induce transcription of the reporter gene. Specifically, the 10% FBS-DMEM was aspirated off the cells and replaced with a 10% FBS-DMEM solution containing a concentration of 1-10 μM muristerone A or 1-10 μM ponasterone A (Invitrogen, United Kingdom). In some cases, a protease inhibitor dissolved in dimethylsulfoxide(DMSO) was also added to the cells for a final concentration of 1-40 μM. The cells were incubated with muristerone A or ponasterone A for 24 hours at 37° C. in a 5% CO2 incubator.
The following day, the cells were washed with PBS. The activity of the luciferase protein was measured using a luciferase assay kit (Promega). Specifically, the cells were lysed in 250 μl of Cell Culture Lysis Reagent. The cells were scraped from the plate and transferred to a microfuge tube. The extract was spun at 12,000×g for 5 seconds. Twenty microliters of each sample was added to 100 μl of Luciferase Assay Reagent. The light produced by the reaction of the luciferase with the Reagent was measured in a luminometer and was reported as relative light units (RLU).
The plasmid pIND-Luc (0.6 μg) was cotransfected with pVgRXR-5A/5B (0.6 μg) in the absence or presence of 1.8 μg of pSRαNS3-4A. On the following day, the cells were incubated with varying amounts of ponasterone A, a ligand which induces the neterodimerization of ecdysone receptor with the mammalian […], RXR. The cells were lysed and assayed for luciferase activity as described previously. The results are depicted in FIG. 7. […]

[2] = system: pIND-Luc luciferase reporter; assay: Muristerone A-induced transactivation of pIND-Luc by expressed fusion proteins in COS cells; assay type: cell-based, African green monkey; conditions: 1 μM muristerone A
Experimental: as §1, §2, §3
After incubation, the cells were washed with PBS. The PBS was removed and 10% FBS-DMEM was added to the cells. […]
The following day, the cells were washed with PBS. The activity of the luciferase protein was measured using a luciferase assay kit (Promega). […] The light produced by the reaction of the luciferase with the Reagent was measured in a luminometer and was reported as relative light units (RLU). […]

C[S+](C)[O-] [DMSO, dimethylsulfoxide]
effect on ponasterone A-induced luciferase activity ([1]; DMSO concentrations up to 1% (v/v), 5 μM ponasterone A, with or without pSRαNS3-4A): little or no effect

CC(C)CC[C@@H](O)[C@](C)(O)[C@H]1CC[C@@]2(O)C3=CC(=O)[C@@H]4C[C@@H](O)[C@@H](O)C[C@]4(C)[C@H]3CC[C@]12C [ponasterone A]
activation of the fusion protein ([1]; absence of the protease NS3-4A): effective at activating the fusion protein | induction of transcription compared with muristerone A ([1]; in these assays): equally effective | ponasterone A concentration giving greatest activation of the fusion protein ([1]; tested at 1, 3.3, 10, 33, 100 μM, COS cells): 3.3 to 10 µM

B1: pVgRXR-5A(Stop)5B: control fusion protein with tandem stop codons in the 5A/5B cleavage site (SEQ ID NO:22) (protein)
chain: MAPPTDVSLGDELHLDGEDVAMAHADALDDFDLDMLGDGDSPGPGFTPHDSAPYGALDMADFEFEQMFTDALGIDEYGGKLLGTGADTEDVVCC
muristerone A-induced luciferase activity of the expressed fusion protein ([2]; 24 hours, no protease, FIG. 4): negligible activity

B2: VgRXR: Invitrogen vector product: modified ecdysone receptor/VP16 fusion (VgEcR) plus RXR (protein)
chain: TPTTPLHLQQNLGGAGGGGIGGMGILHHANGTPNGLIGVVGGGGGVGLGVGGGGVGGLGMQHTPRSDSVNSISSGRDDLSPSSSLNGYSANESCDAKKSKKGPAPRVQEELCLVCGDRASGYHYNALTCEGCKGFFRRSVTKSAVYCCKFGRACEMDMYMRRKCQECRLKKCLAVGMRPECVVPENQCAMKRREKKAQKEKDKMTTSPSSQHGGNGSLASGGGQDFVKKEILDLMTCEPPQHATIPLLPDEILAKCQARNIPSLTYNQLAVIYKLIWYQDGYEQPSEEDLRRIMSQPDENESQTDVSFRHITEITILTVQLIVEFAKGLPAFTKIPQEDQITLLKACSSEVMMLRMARRYDHSSDSIFFANNRSYTRDSYKMAGMADNIEDLLHFCRQMFSMKVDNVEYALLTAIVIFSDRPGLEKAQLVEAIQSYYIDTLRIYILNRHCGDSMSLVFYAKLLSILTELRTLGNQNAEMCFSLKLKNRKLPKFLEEIWDVHAIPPSVQSHLQITQEENERLERAERMRASVGGAITAGIDCDSASTSAAAAAAQHQPQPQPQPQPSSLTQNDSQHQTQPQLQPQLPPQLQGQLQPQLQPQLQTQLQPQIQPQPQLLPVSAPVPASVTAPGSLSAVSTSSEYMGGSAAIGPITPATTSSITAAVTASSTTSAVPMGNGVGVGVGVGGNVSMYANAQTAMALMGVALHSHQEQLIGGVAVKSEHSTTA
modifications: left off: large carriers
notes: Invitrogen vector product: modified ecdysone receptor/VP16 fusion (VgEcR) plus RXR
change in luciferase activity when coexpressed with the protease NS3-4A ([2]; increasing amounts of pSRαNS3-4A): little or no change
